Reference: patent publication US20220151954A1, “TREATMENT OF SEBACEOUS GLAND DISORDERS” (priority 2019, published 2022)

Tests used:
P. acnes = test: Propionibacterium acnes growth inhibition (absorbance at 600 nm); type: cell-based
Procedure: A streak plate isolation technique was performed to isolate a single homogenous colony of P. acnes. A pinch of one colony was inoculated from agar plate into U-shape falcon tube containing 4 ml of broth media. Cultures were incubated at 37° C. in reduced oxygen-conditions for 72 hours. The cultures were then diluted and grown to mid-log phase (O.D. 0.5; 600 nm) for 3 hr.
The bacteria were incubated with the test components (cannabidiol and/or extract of C. asiatica) at different concentrations in triplicate at a final volume of 200 μl in an N-pre-flushed U shape 96-well plates for 3 hr. An additional blank control group was included (media w/o bacteria). Also, a negative (bacteria without test samples) control groups was included in the assay. In addition, combinations of the these components were tested (see Table 2).
The absorbance was recorded at 600 nm. The absorbance of the blank control was subtracted from all measurements. The change in bacterial number in response to increasing test sample concentrations was plotted.

[1] = tested on: PGE2 secretion by RAW 264.7 cells; test: Secretion of PGE2 by LPS-stimulated RAW 264.7 cells; type: cell-based
Procedure: RAW 264.7 cells (approx. 2.5×10^5 ¢/ml, by counting) were seeded in 96 well plates containing 170 μl/well of complete growth medium. The cells were incubated at 37° C. with 5% CO2 for 24 hr. […] In addition, naïve cells, vehicle-treated cells, Stimulated Control, and Stimulated Vehicle Control served as negative controls. Dexamethasone served as a positive control for anti-inflammatory assay. A Blank control group was included in the assay.
The spent media from all test groups were collected under standardized conditions and centrifuged at 250 g for 5 min to remove particulates. Clear supernatants were frozen at −70° C. until analysis. The secretion levels of PGE2 (an important inflammatory marker) were determined.

[2] = tested on: TNFα secretion by U937 cells; test: Inhibition of secretion of TNFα by lipopolysaccharide-stimulated U937 cells (ELISA); type: cell-based
Procedure: (§1) U937 cells, were thawed and treated according to the manufacturer's instructions. The cultures were incubated for recovery at 37° C. with 5% CO2 until 70-80% confluency was reached (visual estimation). Then, approx. 0.3×10^6 ¢/mL (determined by counting) were seeded in 96 well plates containing 200 μL/well of complete growth medium. The cells were incubated at 37° C. with 5% CO2 until 60% confluency was reached (visual estimation, typically—after 48 hr).
(§2) After the cells had reached the required confluency, the medium was replaced with pre-prepared growth medium supplemented with 1 μg/mL of lipopolysaccharides, and the test components were added, at a final volume of 200 μL/well. The following control groups were also added: Naïve cells, vehicle control, stimulation control, stimulation vehicle control. A proper blank control was subtracted from the measurements.
(§3) The cells were incubated for 24 hr. at 37° C. with 5% CO2. After the incubation, the conditioned medium of the different treatment groups was collected under standardized conditions and centrifuged at 250×g for 5 min to remove particulates. Clear supernatants were frozen at −70° C. until cytokines analyses. The secretion levels of IL-1β and TNFα (a major inflammatory marker) were quantified by commercial ELISA.

[3] = tested on: IL-1β secretion by U937 cells; test: Inhibition of secretion of IL-1β by lipopolysaccharide-stimulated U937 cells (ELISA); type: cell-based
Procedure: as §1, §2, §3

human sebocytes = conditions: cited from earlier work
[4] = Homo sapiens, U-937, each component present at 10 μg/ml, 1 μg/mL lipopolysaccharides, 24 hr
[5] = cultured human sebocytes and human skin organ culture

Compound: C=C(C)[C@@H]1CCC(C)=C[C@H]1c1c(O)cc(CCCCC)cc1O [Cannabidiol, cannabidiol]
- inhibition at 1.25 µg/mL (P. acnes; Cutibacterium acnes, Sample 1: cannabidiol 1.25 μg/ml, C. asiatica 0, 3 hr): -10.9%
- inhibition at 2.5 µg/mL (P. acnes; Cutibacterium acnes, Sample 2: cannabidiol 2.5 μg/ml, C. asiatica 0, 3 hr): 5.7%
- effect on growth of P. acnes (in words) (P. acnes; summary of Table 2): neither cannabidiol nor extract of C. asiatica significantly inhibits growth
- inhibition at 1.25 µg/mL ([1]; Mus musculus, RAW264.7, Sample 1: cannabidiol 1.25 μg/ml alone, RAW 264.7, LPS 12.5 ng/ml): 1.9%
- inhibition at 2.5 µg/mL ([1]; Mus musculus, RAW264.7, Sample 2: cannabidiol 2.5 μg/ml alone, RAW 264.7, LPS 12.5 ng/ml): 24%
- effect on secretion of PGE2 (in words) ([1]; at a concentration of 2.5 μg/ml): attenuates
- inhibition at 10 µg/mL [2, 4]: 48%
- effect on secretion of TNFα (in words) ([2]; summary of Table 3): attenuates
- inhibition at 10 µg/mL [3, 4]: 28.4%
- effect on secretion of IL-1β (in words) ([3]; summary of Table 3): attenuates
- effect on lipogenic actions of arachidonic acid, linoleic acid + testosterone (in words) (human sebocytes; [5]): inhibited the lipogenic actions
- effect on sebocyte proliferation (in words) (human sebocytes; [5]): suppressed sebocyte proliferation
- anti-inflammatory action (in words) (human sebocytes; human sebocytes): exerted complex anti-inflammatory actions
